Measured values as given in paper PMC11013143, “4-Chloroisocoumarins as Chlamydial Protease Inhibitors and Anti-Chlamydial Agents” (Molecules, 2024).

How the values were obtained:
CtHtrA = biological target: T1, CtHtrA (Chlamydia trachomatis serovar D, UniProt P18584); experiment: CtHtrA protease inhibition assay; type: biochemical; conditions: for Relative Selectivity: (relative CtHtrA potency)/(relative HLE potency); for IC50: IC50 against CtHtrA; for Relative Potency against CtHtrA: [IC50 of control]/[IC50 test compound]
T1 construct: made in house; host or cells: E. coli BL21(DE3), pET22b
Description: The inhibitory activity of compounds 2a–g against CtHtrA was evaluated. […] As these compounds are reportedly covalent inhibitors of serine proteases, a true IC50 is unable to be calculated. Instead, the residual activity of the protease is monitored over time in response to a range of compound concentrations, and an IC50 value is interpolated from a dose–response curve (see Figures S2–S4 and Tables S1 and S2). This IC50 value is then compared to a positive control (JO146 was used for 2a–g, and 2g was used for 6a–h), giving the ‘relative potency’. This is the established method for assessing CtHtrA inhibitory potency. […] This effect may be due to depth restrictions within the S1 subpocket, as kinetic studies on the rates of protease inhibition in HLE were reduced by larger C-3 alkoxy substituents. Chain branching (iso-propyl and sec-butyl substituents) increased the activity, resulting in a 1.4-fold increase for 2e over 2b and a 2.8-fold improvement for 2g over 2c.
CtHtrA was expressed using an procedure adapted from the literature. Recombinant E. coli BL21(DE3) pET22b was grown in LB media containing 100 ug/mL ampicillin to an OD600 of 0.5-0.6 in 5 × 400 mL batches at 37 °C. Isopropyl β-D-1-thioglactopyranoside (1 M, 400 µL, 1 mM final concentration) was added to each flask and incubated at 30 °C with shaking at 150 rpm for an additional 2.5 h. The culture was centrifuged at 4000× g for 15 min at 4 °C, and the cell pellet was harvested and resuspended in lysis buffer (50 mM phosphate, 10 mM imidazole, 500 mM NaCl, 0.1% Triton X-100, 10% glycerol). Lysozyme was added to the suspended cells and was sonicated in 15 cycles of 15 s, with one minute between cycles while maintaining 4 °C, and then centrifuged at 8000× g for 20 min to remove any debris, retaining the supernatant for protein purification.
TALON® metal affinity resin (Takara cat no. 635652, 5 mL) was added to each lysate tube and washed sequentially with lysis buffer (2 × 45 mL) and stringency buffer (4 × 45 mL) and then eluted with elution buffer (2 × 5 mL), allowing incubations at 4 °C for 20 min per wash, and centrifuging at 2500× g and 4 °C between washes to pellet the resin. The eluates were dialyzed in Tris buffer (pH 7.0, 50 mM, 4 L) with magnesium chloride (20 mM) at 4 °C five times over 24 h, with a minimum of three hours per dialysis change. Protein expression and isolation were confirmed with SDS-PAGE Coomassie stained gel, which was examined for the band at the correct size, and a BCA assay to confirm purified protein concentration prior to use.
CtHtrA was added to 25 wells in a black 96-well plate (40–80 µL, 10 µL increments), to which Tris-HCl buffer (50 mM, pH 7.0 with 20 mM MgCl2) was added to bring the total volume to 90 µL for 10 wells and 85 µL for the remaining 15. JO146 (10 µM, 5 µL) was added to 5 wells and JO146 (1 µM, 5 µL) was added to another 5 wells, with DMSO (5 µL) being added to the remaining 5 as a control. The plate was incubated at 37 °C for 10 min before substrate (MCA-ENLHLPLPIIFK-DNP, 10 µL, 1 mg/mL, 50% isopropanol in buffer) was added and analyzed in a TECAN Infinite Pro M200 plate reader with an excitation wavelength of 340 nm and fluorescence measured at 405 nm with four reads per well at 60 s intervals. A minimum volume of CtHtrA granting a fluorescence change of 300 min^−1 was used for subsequent assay.
The determined appropriate volume of CtHtrA in buffer was added to a 96-well non-transparent black plate and diluted to 85 µL with buffer solution. Drug or control (5 µL) at a maximum of 20% DMSO/80% buffer was added to the appropriate well with DMSO controls, and the plate was incubated for 10 min to allow activation by the protein. MCA-ENLHLPLPIIFK-DNP (Mimotopes, Australia, 1 mg/mL, 10 µL) was added and immediately monitored on a TECAN M200 Infinite plate reader at 37 °C every 60 s for 30 min, using the same wavelengths as for the activity evaluation. […]

[1] = biological target: T2, Human Leukocyte Elastase (HLE) (Homo sapiens, UniProt P08246); experiment: HLE protease inhibition assay; type: biochemical; conditions: for IC50: Table S1, variable slope four parameter fit, read-out: IC50 against HLE; for Relative Potency against HLE: [IC50 of JO146]/[IC50 test compound]
T2 construct: purchased Athens Research and Technology 16-15-051200
T2 sequence (P08246 30-247 limits assumed): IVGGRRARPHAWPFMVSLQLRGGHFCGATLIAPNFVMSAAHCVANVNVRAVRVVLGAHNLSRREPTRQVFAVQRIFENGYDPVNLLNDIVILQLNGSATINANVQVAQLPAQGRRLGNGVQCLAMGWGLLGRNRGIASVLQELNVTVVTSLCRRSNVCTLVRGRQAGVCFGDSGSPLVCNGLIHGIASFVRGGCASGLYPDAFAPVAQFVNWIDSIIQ
Description: Elastase was purchased from Athens Research and Technology (Cat No. 16-15-051200). Elastase (100 µg) was dissolved in Tris buffer (100 mM Tris, 20 mM CaCl2, pH 8.1, 3.14 mL), giving a concentration of 1.117 µM, and 25 µL was added to each well containing the respective inhibitor. The plate was incubated at 37 °C for 15 min.
N-Suc-AAA-pNA (Sigma Aldrich, Bayswater, Australia, S4760, 100 µL, 1 mg/mL, […]) was added to each well, and the absorbance was monitored every six minutes at 405 nm. The rate of change of absorbance was used as a comparison to controls to determine the % inhibition of protein in Microsoft Excel^TM (v2402), and these values were exported to GraphPad Prism (v8.0.1) for IC50 calculation.

[2] = biological target: T2, Human Leukocyte Elastase (HLE); design: method as in PMID 3910097; conditions: cited from earlier work
C. trachomatis = experiment: Chlamydia trachomatis growth inhibition assay in HEp-2 host cells; type: cell-based; conditions: 62.5 µM; for anti-chlamydial activity against C. trachomatis: 30 h post infection, HEp-2 host cells
Description: The workflow for the evaluation of chlamydial growth inhibition is described in the supplementary information (Figure S6). Briefly, HEp-2 cells were seeded in a 96-well plate and grown for 24 h; they were then infected with a fixed quantity of C. trachomatis. The infection was propagated for 4 h, and then a mixture of test compound and cycloheximide was added and the plate was incubated for a further 26 h (30 h post infection). The cells were fixed with methanol and then stained with fluorescent antibodies to visualize chlamydial inclusions, and the growth was measured using inclusion counts relative to vehicle controls.
HEp-2 cells were grown until confluent in a T-75 flask with DMEM (containing 10% FCS, gentamycin (0.05 mg/mL), streptomycin (0.1 mg/mL) and glutamine (Sigma-Aldrich Cat No. G7513, 4 mM); they were then harvested with trypsin, and the cell density was determined with a haemocytometer. Cells were diluted to 1 × 10^5 cells/mL, and 200 µL was dispensed to each well in a 96-well plate and then incubated for 24 h at 5% CO2 at 37 °C.
The supernatant was removed, and 100 µL of the respective chlamydia species in media (100,000 IFU/mL) was added, giving an MOI of 0.5. The plate was sealed and centrifuged at 500× g/28 °C for 30 min and then incubated for a further 3.5 h at 37 °C with 5% CO2. The supernatant was removed, and 100 µL of cycloheximide in DMEM (1 µg/mL) was added in addition to 100 µL of drug stock solution to each respective well with DMSO and media negative controls and also azithromycin positive control. The plate was incubated for a further 26 h.
The supernatant was removed, and wells were washed with PBS (2 × 150 µL) and then fixed in methanol for eight minutes. The methanol was removed and washed with additional PBS (2 × 150 µL) and stored at 4 °C with 100 µL PBS per well and then stained and analyzed using fluorescence microscopy, which is outlined below.
Cells in fixed plates were permeabilized with 0.5% Triton X-100 in PBS for 15 min and then blocked with 1% BSA in PBS for 45 min. Anti-HtrA polyclonal antibody (sera) (1:600) (in-house), anti-mouse tubulin (Sigma-Aldrich Cat no. T-5168, 1:3000) and DAPI (125 ng/mL) in PBS were added to each well (70 µL) and then gently shaken at room temperature while shielding it from light for 45 min. The primary antibodies were removed, and the wells were washed with PBS (4 × 150 µL). Secondary antibodies (goat anti-rabbit Alexafluor 488, Thermo Fisher Cat No. A-11008 and goat anti-mouse Alexafluor 568 (Thermo Fisher Cat No. A-11004)) in PBS (70 µL, 1:600 respectively) were added and the wells were gently shaken at room temperature while shielding them from light for 45 min. The antibodies were removed, and the wells were washed with PBS (5 × 150 µL); cells were then stored with PBS (100 µL per well) at 4 °C pending analysis.
Plates were analyzed on an INcell Analyzer 2200 (Cytiva Life Sciences, Marlborough, MA, USA) using both laser autofocus (10%) and software autofocus modes, with ten random images per well covering a minimum of 80% of the well at 10x magnification. Non-morphologically affected inclusions were counted using a macro in ImageJ (v1.54f), and MIC was defined as being one two-fold dilution more concentrated than MICTP (where MICTP is defined as the lowest concentration to produce ≥90% morphologically abnormal inclusions) relative to solvent controls.

[3] = Table S2, Batch 2, control JO146
[4] = Table S2, Batch 1, control JO146

T1 sequence (P18584 17-497): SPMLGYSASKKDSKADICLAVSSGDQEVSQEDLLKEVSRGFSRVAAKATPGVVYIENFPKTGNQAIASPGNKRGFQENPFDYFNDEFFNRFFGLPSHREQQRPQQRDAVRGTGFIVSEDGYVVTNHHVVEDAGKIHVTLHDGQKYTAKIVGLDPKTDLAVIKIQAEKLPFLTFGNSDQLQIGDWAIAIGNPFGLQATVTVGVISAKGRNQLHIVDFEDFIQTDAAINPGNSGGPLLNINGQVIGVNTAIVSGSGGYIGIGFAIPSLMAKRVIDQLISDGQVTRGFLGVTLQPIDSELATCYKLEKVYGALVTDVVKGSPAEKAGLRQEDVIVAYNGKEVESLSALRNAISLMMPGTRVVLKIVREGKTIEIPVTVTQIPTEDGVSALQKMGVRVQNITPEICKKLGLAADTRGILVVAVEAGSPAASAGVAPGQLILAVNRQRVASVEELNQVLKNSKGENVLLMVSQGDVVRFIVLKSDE

Row | SMILES | Relative Selectivity (CtHtrA) | Relative Potency against CtHtrA (CtHtrA; control JO146) | IC50 [1] | Relative Potency against HLE [1] | IC50 (CtHtrA; [4]) | other results
1 | CC(C)Oc1oc(=O)c2ccccc2c1Cl [Compound 2e, 3-iso-Propoxy-4-chloroisocoumarin] | 12.7 | 5.32 | 1.95 µM | 0.419 | – | fold increase in CtHtrA inhibitory activity (CtHtrA; 2e over 2b): 1.4 fold; IC50 (CtHtrA; [3]): 11.3 µM
2 | CCOc1oc(=O)c2ccccc2c1Cl [Compound 2b, 3-Ethoxy-4-chloroisocoumarin] | 56.4 | 3.73 | 12.3 µM | 0.0664 | 19.1 µM | –
3 | CCCOc1oc(=O)c2ccccc2c1Cl [Compound 2c, 3-Propoxy-4-chloroisocoumarin] | 6.92 | 2.23 | 2.53 µM | 0.323 | 32 µM | –
4 | O=c1oc(Cl)cc2ccccc12 [Compound 3-choro-] | – | – | – | – | – | molecular turnover against HLE [2]: 15
5 | CCC(C)Oc1oc(=O)c2cc(Br)ccc2c1Cl (racemic) [Compound 6f, (±)-7-Bromo-3-sec-butoxy-4-chloro-isocoumarin] | – | – | – | – | – | anti-chlamydial activity against C. trachomatis (C. trachomatis): abolished observable activity; Relative Potency against CtHtrA (CtHtrA; control 2g): 0.057
6 | CCC(C)Oc1oc(=O)c2cc(Cl)ccc2c1Cl (racemic) [Compound 6g, (±)-3-sec-Butoxy-4,7-dichloro-isocoumarin] | – | – | – | – | – | anti-chlamydial activity against C. trachomatis (C. trachomatis): did not significantly affect the efficacy of 2g; statistical significance of anti-chlamydial activity (C. trachomatis; relative to solvent controls): statistically significant anti-chlamydial activity; IC50 (CtHtrA; Table S2, Batch 5, control 2g): 71.8 µM; Relative Potency against CtHtrA (CtHtrA; control 2g): 0.390
7 | O=c1oc(Cl)c(Cl)c2ccccc12 [3,4-dichloroisocoumarin] | – | – | – | – | – | molecular turnover against HLE [2]: 3.1
8 | CCCCOc1oc(=O)c2ccccc2c1Cl [Compound 2d, 3-Butoxy-4-chloroisocoumarin] | 5.08 | 1.57 | 2.64 µM | 0.310 | 45.5 µM | –
9 | CC(C)COc1oc(=O)c2ccccc2c1Cl [Compound 2f, 3-iso-Butoxy-4-chloroisocoumarin] | 4.08 | 1.50 | 2.22 µM | 0.368 | – | IC50 (CtHtrA; [3]): 40 µM
